Assay results from US8088772B2, “Sulfonamides and their use as a medicament” (The Genetics Company, Inc., priority 2006, dated 2012).

Assays:
βCatenin-BCL9 = test: ELISA based protein-protein interaction assay; assay type: binding; conditions: inhibition class of the βCatenin-BCL9 interaction
Experimental: In vitro ELISA-based Protein-protein Interaction Assay
Protein Production in Bacteria
cDNAs including the binding domains of Lgs and βCatenin were fused downstream of glutathione-S-transferase (GST) cDNA in pGEX-4T inducible bacterial expression vector (Pharmacia). Fusion proteins were produced in BL21 bacteria (e.g. Stratagene) following manufacturer's recommendation.
To isolate the produced fusions protein bacteria were lysed in sonication buffer (10 mM Tris HCl pH 8.0, 150 mM NaCl, 1 mM EDTA, 1.5% sarkosyl, 2% Triton-X-100, 1 mM DTT and protease inhibitors), followed by short sonication on ice (e.g. 3 times 20 seconds at middle power) and centrifugation. Cleared supernatants were incubated under gentle rotation with glutathione beads (Amersham Pharmacia) for 2 hrs at 4° C. Finally, beads were washed several time in washing buffer (20 mM Tris pH 8.0, 200 mM NaCl, 1 mM EDTA, 1 mM DTT, 1 mM MgCl2, 0.5% NP40), and stored in storage buffer (20 mM Tris pH 8.0, 200 mM NaCl, 1 mM EDTA, 1 mM DTT, 1 mM MgCl2, 10% glycerol, 0.5% NP40, and proteinase inhibitors). The quality of the preparations was checked by SDS-gel electrophoresis by standard methods well known by persons skilled in the art. […]

Wnt pathway = test: Cell Assay (CA): inhibition of Wnt activity in cancer cells, Tcf reporter gene; assay type: cell-based; conditions: inhibition class in the Cell Assay
Description: Inhibition of Wnt Activity in Cancer Cells
The effect of β-catenin/BCL9 inhibitors identified in the ELISA-based protein-protein interaction assay on the Wnt pathway can be evaluated in a cell culture system using a reporter gene responsive to the Tcf/Lef family of transcription factors or by quantitative analysis of Wnt target genes in appropriate cell lines.
A reporter gene is a construct which comprises a readily detectable or assayable gene such β-galactosidase, green fluorescent protein, chloramphenicol acetyltransferase or luciferase, linked in cis to a transcription factor response element and a minimal promoter. Depending on the expression vectors used, this protocol can be applied, e.g. for mammalian as well as for Drosophila cell lines. For instance, colon cancer cells with constitutively active Wnt pathway like DLD-1 or SW620 (ATCC) are a well suitable system. Hereby, a Tcf-4 driven luciferase reporter plasmid (i.e. TOP-FLASH, Upstate biotechnology, New York, USA) is transiently or stably transfected into cells known in the art. Any means for introducing genetic material into cells can be used, including but not limited to infection, electroporation or transfection. For instance, to introduce DNA into DLD-1 cells, a lipofection agent like the Lipofectamine transfection reagent (Life Technologies, Inc.) can be used. By transient transfection protocols, a second reporter gene, e.g. the renilla luciferase reporter plasmid pRL-SV40 (Promega Corporation, Madison USA), needs to be co-transfected to normalize for transfection efficiency. Drugs are added to the media 24 h after trans-fection (transient transfection) or 24 h after seeding of the cells (stably transfected cells). Cell extracts are prepared 24 to 48 h later and assayed for reporter gene activity as described by the manufacturer (eg. for luciferase activity: Promega Corporation). Compounds reducing reporter gene activity more than 50% compared to solvent alone treated cells are considered as hits. In parallel, toxicity can be assessed for instance by the yellow tetrazolium salt cell proliferation assay (MTT) assay.

SMILES	ELISA (βCatenin-BCL9)	CA (Wnt pathway)
Cc1cc(-c2ccccc2)n(-c2ccc([N+](=O)[O-])cc2S(=O)(=O)Nc2ccccc2Cl)n1 [TGC0011570]	5 (81-100% inhibition)	4 (61-80% inhibition)
O=S(=O)(Nc1cc(S(=O)(=O)N2CCOCC2)ccc1Cl)c1ccccc1Br [TGC0011498]	1 (0-20% inhibition)	1 (0-20% inhibition)
O=[N+]([O-])c1ccc(N/N=C/c2cc(Cl)cc(Cl)c2O)c(S(=O)(=O)Nc2ccccc2Cl)c1 [TGC0010527]	3 (41-60% inhibition)	4.5
CC(C)C/C=N/Nc1ccc([N+](=O)[O-])cc1S(=O)(=O)Nc1ccccc1Cl [TGC0012273]		3.5
CC(=O)Nc1ccc(Cl)c(NS(=O)(=O)c2ccccc2Br)c1 [TGC0011502]	1 (0-20% inhibition)	1 (0-20% inhibition)
CC(=O)Nc1ccc(S(=O)(=O)NNc2ccc([N+](=O)[O-])cc2S(=O)(=O)Nc2ccccc2Cl)cc1 [TGC0011575]	1 (0-20% inhibition)	3 (41-60% inhibition)
O=[N+]([O-])c1ccc(N/N=C/c2ccc(Br)cc2)c(S(=O)(=O)Nc2ccccc2Cl)c1 [TGC0011421]	2.5	4 (61-80% inhibition)
O=[N+]([O-])c1ccc(NNCc2ccc(F)cc2)c(S(=O)(=O)Nc2ccccc2Cl)c1 [TGC0012257]	1 (0-20% inhibition)	1.5
N#Cc1ccc(Cl)c(NS(=O)(=O)c2ccccc2Br)c1 [TGC0011492]	1 (0-20% inhibition)	1 (0-20% inhibition)
COC(=O)c1ccccc1S(=O)(=O)Nc1ccccc1Cl [TGC0011601]	1 (0-20% inhibition)	1 (0-20% inhibition)
COC(=O)c1ccc(NS(=O)(=O)c2ccccc2Br)c(Cl)c1 [TGC0011499]	1 (0-20% inhibition)	1 (0-20% inhibition)
CS(=O)(=O)c1ccc(S(=O)(=O)NNc2ccc([N+](=O)[O-])cc2S(=O)(=O)Nc2ccccc2Cl)cc1 [TGC0011577]	4 (61-80% inhibition)	1 (0-20% inhibition)
O=[N+]([O-])c1ccc(N/N=C/c2cccc(OCCN3CCOCC3)c2)c(S(=O)(=O)Nc2ccccc2Cl)c1 [TGC0011420]	1 (0-20% inhibition)	2 (21-40% inhibition)
Cn1cncc1C#Cc1ccccc1S(=O)(=O)Nc1ccccc1Cl [TGC0012268]		2.5
O=[N+]([O-])c1ccc(N/N=C/c2ccc(O)cc2)c(S(=O)(=O)Nc2ccccc2Cl)c1 [TGC0011359]	3 (41-60% inhibition)	3 (41-60% inhibition)
CC(=O)c1ccc(S(=O)(=O)NNc2ccc([N+](=O)[O-])cc2S(=O)(=O)Nc2ccccc2Cl)cc1 [TGC0011581]	2 (21-40% inhibition)	1 (0-20% inhibition)
O=[N+]([O-])c1ccc(NNCc2ccc3nonc3c2)c(S(=O)(=O)Nc2ccccc2Cl)c1 [TGC0012260]	4.5	1.5
Cc1nn(-c2ccc(F)cc2)c(Cl)c1/C=N\Nc1ccc([N+](=O)[O-])cc1S(=O)(=O)Nc1ccccc1Cl [TGC0010674]	2.5	
Nc1ccc(NC(=O)Cc2ccc(Cl)cc2)c(S(=O)(=O)Nc2ccccc2Cl)c1 [TGC0011573]	3 (41-60% inhibition)	1 (0-20% inhibition)
COC(=O)c1ccc(Cl)c(NS(=O)(=O)c2ccccc2Br)c1 [TGC0011494]	1 (0-20% inhibition)	1 (0-20% inhibition)
CN1CCN(Cc2ccc(/C=N/Nc3ccc([N+](=O)[O-])cc3S(=O)(=O)Nc3ccccc3Cl)cc2)CC1 [TGC0011438]	1 (0-20% inhibition)	3 (41-60% inhibition)
O=S(=O)(Nc1ccccc1Cl)c1ccccc1Br [TGC0011157]	1 (0-20% inhibition)	

SMILES	ELISA (βCatenin-BCL9)	CA (Wnt pathway)
O=[N+]([O-])c1ccc(N/N=C/c2ccnc3ccccc23)c(S(=O)(=O)Nc2ccccc2Cl)c1 [TGC0011405]		4.5
CCCCCC#C/C=N/Nc1ccc([N+](=O)[O-])cc1S(=O)(=O)Nc1ccccc1Cl [TGC0012276]		4.5
O=C(NNc1ccc([N+](=O)[O-])cc1S(=O)(=O)Nc1ccccc1Cl)c1cc(Cl)cc(Cl)c1 [TGC0011568]	1.5	4 (61-80% inhibition)
Cc1cc(/C=N\Nc2ccc([N+](=O)[O-])cc2S(=O)(=O)Nc2ccccc2Cl)c(C)n1-c1ccc(Cl)cc1 [TGC0010673]	1 (0-20% inhibition)	4.5
O=[N+]([O-])c1ccc(N/N=C/c2cccc(CN3CCOCC3)c2)c(S(=O)(=O)Nc2ccccc2Cl)c1 [TGC0011419]	1.5	3 (41-60% inhibition)
C[n+]1cccc(/C=N/Nc2ccc([N+](=O)[O-])cc2S(=O)(=O)Nc2ccccc2Cl)c1.[I-] [TGC0011513]		1 (0-20% inhibition)
CC(=O)Nc1ccc(/C=N/Nc2ccc([N+](=O)[O-])cc2S(=O)(=O)Nc2ccccc2Cl)cc1 [TGC0011358]	1.5	3 (41-60% inhibition)
CCN1C(=O)/C(=N\Nc2ccc([N+](=O)[O-])cc2S(=O)(=O)Nc2ccccc2Cl)c2ccccc21 [TGC0010665]	2 (21-40% inhibition)	4 (61-80% inhibition)
O=S(=O)(Nc1ccccc1Cl)c1ccc(Cl)c(NS(=O)(=O)c2ccccc2Br)c1 [TGC0011493]	1 (0-20% inhibition)	1 (0-20% inhibition)
O=[N+]([O-])c1ccc(N/N=C/c2ccc(O)c(O)c2)c(S(=O)(=O)Nc2ccccc2Cl)c1 [TGC0008709]	3.5	4 (61-80% inhibition)
O=[N+]([O-])c1ccc(N/N=C/c2cccnc2)c(S(=O)(=O)Nc2ccccc2Cl)c1 [TGC0011402]	2 (21-40% inhibition)	4 (61-80% inhibition)
Cc1cc(-c2ccccc2)nn1-c1ccc([N+](=O)[O-])cc1S(=O)(=O)Nc1ccccc1Cl [TGC0011569]	1.5	4 (61-80% inhibition)
O=S(=O)(Nc1ccccc1Cl)c1ccccc1Cl [TGC0011155]	1 (0-20% inhibition)	
COC(=O)c1ccc(C(=O)NNc2ccc([N+](=O)[O-])cc2S(=O)(=O)Nc2ccccc2Cl)cc1 [TGC0011562]	2 (21-40% inhibition)	1.5
O=S(=O)(Nc1ccccc1Cl)c1cccc(Br)c1 [TGC0011158]	1 (0-20% inhibition)	
O=[N+]([O-])c1ccc(N/N=C/c2ccc(Oc3cccnc3)cc2)c(S(=O)(=O)Nc2ccccc2Cl)c1 [TGC0011406]		4 (61-80% inhibition)
O=C(O)c1ccc(CNNc2ccc([N+](=O)[O-])cc2S(=O)(=O)Nc2ccccc2Cl)cc1 [TGC0011589]	5 (81-100% inhibition)	4 (61-80% inhibition)
O=[N+]([O-])c1ccc(N/N=C/c2ccncc2)c(S(=O)(=O)Nc2ccccc2Cl)c1 [TGC0011403]	2 (21-40% inhibition)	4 (61-80% inhibition)
O=[N+]([O-])c1ccc(N/N=C/c2cc(Cl)cc(Cl)c2)c(S(=O)(=O)Nc2ccccc2Cl)c1 [TGC0010536]	2 (21-40% inhibition)	5 (81-100% inhibition)
O=C1Nc2ccccc2/C1=N/Nc1ccc([N+](=O)[O-])cc1S(=O)(=O)Nc1ccccc1Cl [TGC0010663]	2.5	
COc1cc(Cl)cc(/C=N/Nc2ccc([N+](=O)[O-])cc2S(=O)(=O)Nc2ccccc2Cl)c1OCC(=O)O [TGC0011360]	4.5	
